# Assays:
# Test in all cases: relative viability (nuclei count vs DMSO), 5 days (fraction); higher = more cells survive
# [1] = compound: C1CNCCC1C2=CC(=NN2)C3=CC=NC=C3 + N=C(N)NC(=N)NCCc1ccccc1 [Phenformin] (partner 250 µM)
# Outline: (§1)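 One day after seeding in 1536-well plates, lung cancer cell lines were dosed by pin tool. Dosing was either single-drug or a fixed anchor-drug dose plus five library-drug doses (not always all listed) in √10 steps. After 5 days, nuclei were stained in one fix-and-stain step and counted on 4× images, and relative viability is the nuclei count of treated wells over that of vehicle wells, given as the median of duplicate plates.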
# [2] = compound: C[C@@H](N)c1ccc(C(=O)Nc2ccnc3[nH]ccc23)cc1 + N=C(N)NC(=N)NCCc1ccccc1 [Phenformin] (partner 250 µM)
# Outline: as §1
# Tanzisertib + Pictilisib = compound: O[C@H]1CC[C@H](Nc2ncc3nc(Nc4c(F)cc(F)cc4F)n([C@H]4CCOC4)c3n2)CC1 [Tanzisertib] + CS(=O)(=O)N1CCN(Cc2cc3nc(-c4cccc5[nH]ncc45)nc(N4CCOCC4)c3s2)CC1 [Pictilisib] (partner 1 µM)
# Outline: as §1
# [3] = compound: C[C@@H](N)c1ccc(C(=O)Nc2ccnc3[nH]ccc23)cc1 + CC(C)C[C@H](NC(=O)[C@H](Cc1ccccc1)NC(=O)c1cnccn1)B(O)O [Bortezomib] (partner 0.002 µM)
# Outline: as §1
cell line,measurement,setting,value
UMC-11,relative viability,[1]; first compound 0.08 µM,0.325
same,relative viability,[1]; first compound 0.8 µM,0.209
same,relative viability,[1]; first compound 2.53 µM,0.348
same,relative viability,[1]; first compound 8 µM,0.351
same,relative viability,[2]; first compound 0.04 µM,0.268
same,relative viability,[2]; first compound 0.1265 µM,0.358
same,relative viability,[2]; first compound 0.4 µM,0.354
same,relative viability,[2]; first compound 1.265 µM,0.228
same,relative viability,[2]; first compound 4 µM,0.234
same,relative viability,Tanzisertib + Pictilisib; first compound 0.08 µM,0.874
same,relative viability,Tanzisertib + Pictilisib; first compound 0.253 µM,0.85
same,relative viability,Tanzisertib + Pictilisib; first compound 0.8 µM,0.909
same,relative viability,Tanzisertib + Pictilisib; first compound 2.53 µM,0.798
same,relative viability,Tanzisertib + Pictilisib; first compound 8 µM,0.711
same,relative viability,[3]; first compound 0.04 µM,0.669
same,relative viability,[3]; first compound 0.1265 µM,0.717
same,relative viability,[3]; first compound 0.4 µM,0.768
same,relative viability,[3]; first compound 1.265 µM,0.286
same,relative viability,[3]; first compound 4 µM,0.415

# Source: the supplement of paper PMC10307832
